In patent US20100260680A1, “NOVEL BONE MASS INCREASING AGENT” (ORIENTAL YEAST CO., LTD., priority 2007, published 2010):
Bridges are numbered along the chain shown (N, C = ends). Where no end group is shown, it is not given here.

What was measured:
[1] = test system: MC3T3-E1 cells; test: ALP activity determination in MC3T3-E1 cells; assay type: cell-based, mouse
Method: Seven days after differentiation, the culture supernatant was removed from each plate and the cells were fixed with an acetone/ethanol solution. The ALP activity was determined using p-nitrophenyl phosphate as a substrate. Specifically, a carbonate buffer (5 mM MgCl2, 50 mM NaHCO3) containing p-nitrophenyl phosphate (Nacalai) (1 mg/mL) was added to each well (100 μL/well), followed by incubation at 37° C. Then, the OD value at 405 nm was determined with the use of a microplate reader (BMG Labtech) for each well.
(§1) Cells mixed with 10% FBS+αMEM (GIBCO) were seeded on a 96-well plate (8×10^3 cells/well) and a 48-well plate (2×10^4 cells/well). The culture supernatant of each plate was replaced with 10% FBS+αMEM containing 5 mM β glycerophosphoric acid (SIGMA)+10 μg/mL sodium ascorbate (SIGMA) 48 hours later. Then, the medium was replaced with new medium every 3 or 4 days. As a control, MC3T3-E1 was cultured with the use of 10% FBS+αMEM as a maintenance medium. Upon medium replacement, a peptide was added to each plate at a concentration of 300 μM, ALP activity determination and alizarin red S staining were carried out by the method described in Example 1 on Days 7 and 21.
MC3T3-E1 cells mixed with 10% FBS+αMEM (SIGMA) were seeded on a 96-well plate (1.5×10^4 cells/well). After 12 hours, the medium was removed therefrom and a medium containing an SB203580 p38 inhibitor (Calbiochem) was added thereto. […] Then, ALP activity determination was carried out by the method described in Example 1.
Similarly, rhDkk-1 (R&D) was added as a Wnt antagonist at concentrations of 0.25, 0.5, and 1 μg/ml. After 1 hour, 200 μM peptide D was added thereto, followed by culture for 5 days. Then, ALP activity determination was carried out by the method described in Example 1.
In addition, as described above, BMPR-IA (R&D) was added as a BMP antagonist at concentrations of 0.25 and 1 μg/ml. […] Then, ALP activity determination was carried out by the method described in Example 1. […] Based on the above results, it was likely that actions of peptide D depend on BMP induction or BMP produced constantly and spontaneously by cells.
MC3T3-E1 cells mixed with 10% FBS+α MEM (SIGMA) were seeded on a 96-well plate (1.5×10^4 cells/well).
Further, peptide D and peptide E were compared with each other in terms of ALP activity enhancement actions in MC3T3-E1 cells. Peptide D and peptide E were used at concentrations of 25, 50, 100, and 200 μM for culture under the conditions described in Example 14, followed by determination of ALP activity by the method described in Example 1.
MC3T3-E1 cells (mouse osteoblast precursor cells) mixed with 10% FBS+αMEM (SIGMA) were seeded on a 96-well plate (2×10^4 cells/well). After cell adhesion, the medium was removed therefrom, followed by ALP activity determination in the cases involving the addition of 50 and 150 μM peptide D (acetate and hydrochloride). […] On Day 5 after the addition of the individual factors, the culture supernatant was removed, followed by ALP activity determination by the method described in Example 1.
MC3T3-E1 cells (mouse osteoblast precursor cells) mixed with 10% FBS+αMEM (SIGMA) were seeded on a 96-well plate (2×10^4 cells/well). After cell adhesion had taken place, the medium was removed therefrom, followed by determination of ALP activity in the cases involving the mixing of 5 ng/mLBMP-2 (produced by CHO cells) with 6.25, 12.5, 25, 50, and 100 μM synthetic peptide D. On Day 5 after the addition of the individual factors, the culture supernatant was removed, followed by ALP activity determination by the method described in Example 1.
At the end of the experiment, synergistic effects of synthetic peptide D in the form of acetate and BMP-4 (R&D) were also examined. MC3T3-E1 cells (mouse osteoblast precursor cells) mixed with 10% FBS+αMEM (SIGMA) were seeded on a 96-well plate (2×10^4 cells/well). […]

[2] = test system: RANKL knock-down MC3T3-E1 cells; test: ALP activity in RANKL knock-down MC3T3-E1 cells; assay type: cell-based, mouse; details: KD1 and KD2; 200 μM peptide D or 200 ng/ml BMP-2; 5 days
[3] = biological target: T1, RANKL (Homo sapiens, UniProt O14788); details: Aoki et al., J Clin Invest 116: 1525, 2006; cited from earlier work
T1 sequence (O14788 140-317 limits assumed): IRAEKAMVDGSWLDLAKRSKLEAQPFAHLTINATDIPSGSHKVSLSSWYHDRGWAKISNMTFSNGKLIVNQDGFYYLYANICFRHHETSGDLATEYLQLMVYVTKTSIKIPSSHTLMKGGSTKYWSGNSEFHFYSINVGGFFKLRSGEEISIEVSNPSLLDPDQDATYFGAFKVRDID

[4] = test system: MC3T3-E1 cells; test: Alizarin red S staining (calcification) of MC3T3-E1 cells; assay type: cell-based, mouse; details: 300 μM; Day 21; differentiation medium and maintenance medium
Method: On Day 21 after differentiation, the cells were washed with PBS, followed by fixation with a 10% neutral buffer formalin solution.
The cells were washed with water after removal of the fixative solution. A 1% alizarin red S stain solution (Nacalai) (150 μL) was added thereto. The plate was left at room temperature for 3 minutes. Thereafter, the stain solution was discarded, followed by washing with water and drying. Then, microscopic observation was carried out.
as §1

peptide D: cyclic peptide of SEQ ID NO: 7, 9 amino acids, two cysteine residues bound via a disulfide bond; binds to RANKL (YCWSQYLCY; disulfide 2-8 (inferred))
ALP activity ([1]; 150 μM peptide D combined with 30 ng/mL BMP-2): additive actions of ALP activity enhancement | ALP activity ([1]; 300 μM, Day 7 after differentiation): significantly increased | ALP activity ([1]; 25, 50, 100 and 200 μM, 5 days): enhance ALP activity in a concentration-dependent manner | ALP activity, peptide D compared with peptide E ([1]; 50 and 100 μM): significant enhancement actions compared with peptide E | ALP activity enhancement under RANKL knockdown [2]: significantly reduced | binding to RANKL [3]: binds to RANKL | alizarin red staining (calcification) [4]: strong degree of alizarin red staining
